Starred links: 1 amine or outer side, 2 acyl side, 3 side chain; linkers in the order of their positions; H or OH if unused. Non-standard residues stand in square brackets, D forms with d. Residues, ends and D or L forms follow the SMILES beside them. X4 = O=C(N(Cc1ccc(-c2ccccc2)cc1)N[*:1])[*:2]; azaTyr = O=C(N(Cc1ccc(O)cc1)N[*:1])[*:2]; X3 = O=C(N(Cc1cccc2ccccc12)N[*:1])[*:2]; azaPhe = O=C(N(Cc1ccccc1)N[*:1])[*:2]; X2 = O=C(N(CCc1ccccc1)N[*:1])[*:2]; azaLeu = CC(C)CN(N[*:1])C(=O)[*:2]; X1 = O=C(N(CC1CCCCC1)N[*:1])[*:2]
assay: HS-R1a radioreceptor assay: GHS-R1a radioreceptor assay using LLCPK-1 membranes overexpressing GSH-R1a and radioiodinated (1-28) rat ghrelin as tracer.

Compound	EC50 [µM]
C[C@H](NC(=O)N(Cc1ccccc1)NC(=O)[C@@H](N)Cc1cnc[nH]1)C(=O)N[C@@H](Cc1c[nH]c2ccccc12)C(=O)N[C@H](Cc1ccccc1)C(=O)N[C@@H](CCCCN)C(N)=O (H-H[azaPhe]AW[dF]K-NH2)	16.1
C[C@H](NC(=O)[C@@H](Cc1c[nH]c2ccccc12)NC(=O)[C@@H](N)Cc1cnc[nH]1)C(=O)NN(CC1CCCCC1)C(=O)N[C@H](Cc1ccccc1)C(=O)N[C@@H](CCCCN)C(N)=O (H-H[dW]A[X1][dF]K-NH2)	4.28
C[C@H](NC(=O)[C@@H](Cc1c[nH]c2ccccc12)NC(=O)[C@@H](N)Cc1cnc[nH]1)C(=O)NN(Cc1cccc2ccccc12)C(=O)N[C@H](Cc1ccccc1)C(=O)N[C@@H](CCCCN)C(N)=O (H-H[dW]A[X3][dF]K-NH2)	0.723
C[C@H](NC(=O)[C@@H](Cc1c[nH]c2ccccc12)NC(=O)[C@@H](N)Cc1cnc[nH]1)C(=O)NN(Cc1ccc(-c2ccccc2)cc1)C(=O)N[C@H](Cc1ccccc1)C(=O)N[C@@H](CCCCN)C(N)=O (H-H[dW]A[X4][dF]K-NH2)	1.34
CC(C)CN(NC(=O)[C@H](C)NC(=O)[C@@H](Cc1c[nH]c2ccccc12)NC(=O)[C@@H](N)Cc1cnc[nH]1)C(=O)N[C@H](Cc1ccccc1)C(=O)N[C@@H](CCCCN)C(N)=O (H-H[dW]A[azaLeu][dF]K-NH2)	19.5
C[C@H](NC(=O)[C@@H](Cc1c[nH]c2ccccc12)NC(=O)[C@@H](N)Cc1cnc[nH]1)C(=O)NN(Cc1ccccc1)C(=O)N[C@H](Cc1ccccc1)C(=O)N[C@@H](CCCCN)C(N)=O (H-H[dW]A[azaPhe][dF]K-NH2)	2.77
C[C@H](NC(=O)[C@@H](Cc1c[nH]c2ccccc12)NC(=O)[C@@H](N)Cc1cnc[nH]1)C(=O)NN(Cc1ccc(O)cc1)C(=O)N[C@H](Cc1ccccc1)C(=O)N[C@@H](CCCCN)C(N)=O (H-H[dW]A[azaTyr][dF]K-NH2)	15.7
C[C@H](NC(=O)[C@@H](Cc1c[nH]c2ccccc12)NC(=O)[C@@H](N)Cc1cnc[nH]1)C(=O)N[C@H](Cc1ccc(O)cc1)C(=O)N[C@H](Cc1ccccc1)C(=O)N[C@@H](CCCCN)C(N)=O (H-H[dW]A[dY][dF]K-NH2)	3.25

Second part, the molecule after the results:

EC50 [µM]	Compound
5.49	C[C@H](NC(=O)N(CC1CCCCC1)NC(=O)[C@@H](N)Cc1cnc[nH]1)C(=O)N[C@@H](Cc1c[nH]c2ccccc12)C(=O)N[C@H](Cc1ccccc1)C(=O)N[C@@H](CCCCN)C(N)=O (H-H[X1]AW[dF]K-NH2)
0.771	C[C@H](NC(=O)[C@@H](Cc1c[nH]c2ccccc12)NC(=O)[C@@H](N)Cc1cnc[nH]1)C(=O)N[C@@H](Cc1ccc(O)cc1)C(=O)N[C@H](Cc1ccccc1)C(=O)N[C@@H](CCCCN)C(N)=O (H-H[dW]AY[dF]K-NH2)
3.74	C[C@H](NC(=O)[C@@H](Cc1c[nH]c2ccccc12)NC(=O)[C@@H](N)Cc1cnc[nH]1)C(=O)NN(CCc1ccccc1)C(=O)N[C@H](Cc1ccccc1)C(=O)N[C@@H](CCCCN)C(N)=O (H-H[dW]A[X2][dF]K-NH2)
1.2	CC(C)CN(NC(=O)[C@@H](Cc1c[nH]c2ccccc12)NC(=O)[C@@H](N)Cc1cnc[nH]1)C(=O)N[C@@H](Cc1c[nH]c2ccccc12)C(=O)N[C@H](Cc1ccccc1)C(=O)N[C@@H](CCCCN)C(N)=O (H-H[dW][azaLeu]W[dF]K-NH2)
